These results are taken from patent publication US6410733B1, “Amidine inhibitors of serine proteases” (Genentech, Inc., priority 2000, dated 2002).

The assay has as its target human Factor Xa (Homo sapiens, UniProt P00742). Kind of assay: Factor Xa assay. Conditions: 3.3 nM Xa, S-2222 0.5 mM; read-out: binding affinity to serine proteases: Xa (constant of inhibition Ki). Format: biochemical. Also noted: This complex converts factor X to Xa; purchased Hematologic Technologies. The protocol: These procedures are used to determine the constant of inhibition (Ki) for a sample compound of the invention.
Coagulation Factor: human Factor Xa, Thrombin, or Plasma Kallikrein (Hematologic Technologies) Dilute to 0.45 μg/mL (9.8 nM) in assay buffer.
Substrate: S-2222, S2366 or S2302—(See below—Chromogenix Inc,) Reconstitute at 5 mM in H2O. Dilute to 1.5 mM in assay buffer prior to use.
Samples: Dilute samples to 3% DMSO in assay buffer.
1. Add 50 μL sample to each well.
2. Add 50 μL appropriately diluted coagulation factor to each well.
3. Incubate for 5 minutes at room temperature with gentle agitation.
4. Add 50 μL appropriately diluted substrate to each well.
5. Agitate plate for 20-25 sec.
6. Monitor absorbance at 405 nm every 10 sec for a total of 5 minutes at room temperature.
7. Calculate Vmax over 10 points.

Structures are written as SMILES.

Sequence of human Factor Xa (P00742 235-488 limits assumed): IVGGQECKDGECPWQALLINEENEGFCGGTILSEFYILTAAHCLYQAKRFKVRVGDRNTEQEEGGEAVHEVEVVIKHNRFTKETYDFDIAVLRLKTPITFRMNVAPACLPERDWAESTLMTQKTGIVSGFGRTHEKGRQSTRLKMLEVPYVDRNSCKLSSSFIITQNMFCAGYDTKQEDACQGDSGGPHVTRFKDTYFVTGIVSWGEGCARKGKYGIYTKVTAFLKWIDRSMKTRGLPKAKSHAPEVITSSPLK
Sequence of human Factor Xa (P00742 41-179 limits assumed): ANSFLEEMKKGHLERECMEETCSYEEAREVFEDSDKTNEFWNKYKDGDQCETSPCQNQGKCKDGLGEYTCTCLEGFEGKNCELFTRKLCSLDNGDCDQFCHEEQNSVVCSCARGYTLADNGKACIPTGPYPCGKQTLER

One may read the Ki as a measure of affinity in units of concentration, obtained from inhibition or displacement. As to `C[C@@H](NC(=O)[C@@H]1C[C@@H](Oc2cccc(C(=N)N)c2)CN1)c1ccccc1` [compound 26], the Ki was 114 µM.
